Like-named read-outs stand apart in the source and are kept apart here.

Test [1] deals with T1, non-HDAC targets (e.g. BZW2, ISOC2, aldehyde dehydrogenases) (Homo sapiens, UniProt P16152).
T1 construct: Kd^app CBR1; other: protein CBR1; selected HDACi off-targets
T1 sequence (P16152 1-277): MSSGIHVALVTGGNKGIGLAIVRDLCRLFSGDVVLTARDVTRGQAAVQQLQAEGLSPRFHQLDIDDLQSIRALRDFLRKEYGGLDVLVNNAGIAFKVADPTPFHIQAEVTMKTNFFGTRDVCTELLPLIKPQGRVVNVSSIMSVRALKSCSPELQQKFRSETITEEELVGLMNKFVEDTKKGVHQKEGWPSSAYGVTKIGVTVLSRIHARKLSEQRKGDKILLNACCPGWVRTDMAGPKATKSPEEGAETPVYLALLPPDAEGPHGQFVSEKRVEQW
Kind of test: Chemoproteomic binding profiling, K562 cell extract, SAHA/ITF2357 probe matrix (Kd app). The settings on record: protein CBR1; selected HDACi off-targets.

The target of test [2] is T2, non-HDAC targets (e.g. BZW2, ISOC2, aldehyde dehydrogenases) (Homo sapiens, UniProt Q08209).
T2 construct: Kd^app PPP3CA; other: protein PPP3CA; selected HDACi off-targets
The description is as above. To be noted: protein PPP3CA; selected HDACi off-targets.

The target of test [3] is T3, non-HDAC targets (e.g. BZW2, ISOC2, aldehyde dehydrogenases) (Homo sapiens, UniProt O94788).
T3 construct: endogenous in cells; host or cells: K562 whole cell extract
T3 sequence (O94788 1-518): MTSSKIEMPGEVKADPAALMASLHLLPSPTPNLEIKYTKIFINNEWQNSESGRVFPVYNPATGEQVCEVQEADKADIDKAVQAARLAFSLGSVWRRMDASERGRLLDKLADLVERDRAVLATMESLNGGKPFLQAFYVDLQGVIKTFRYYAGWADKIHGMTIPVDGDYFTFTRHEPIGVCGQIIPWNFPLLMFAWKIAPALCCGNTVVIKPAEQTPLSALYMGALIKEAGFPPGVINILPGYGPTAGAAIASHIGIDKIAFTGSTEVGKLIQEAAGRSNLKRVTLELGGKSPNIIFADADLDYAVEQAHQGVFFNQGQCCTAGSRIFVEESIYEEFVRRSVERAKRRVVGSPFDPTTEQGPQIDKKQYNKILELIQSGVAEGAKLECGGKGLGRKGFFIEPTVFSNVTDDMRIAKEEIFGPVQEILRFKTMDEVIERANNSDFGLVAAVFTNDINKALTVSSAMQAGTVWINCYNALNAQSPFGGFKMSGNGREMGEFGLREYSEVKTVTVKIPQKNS
The test is described as above. To be noted: protein ALDH1A2; selected HDACi off-targets.

For test [4], the target named is T4, non-HDAC targets (e.g. BZW2, ISOC2, aldehyde dehydrogenases) (Homo sapiens, UniProt Q96AB3).
T4 construct: endogenous in cells; host or cells: K562 whole cell extract
T4 sequence (Q96AB3 1-205): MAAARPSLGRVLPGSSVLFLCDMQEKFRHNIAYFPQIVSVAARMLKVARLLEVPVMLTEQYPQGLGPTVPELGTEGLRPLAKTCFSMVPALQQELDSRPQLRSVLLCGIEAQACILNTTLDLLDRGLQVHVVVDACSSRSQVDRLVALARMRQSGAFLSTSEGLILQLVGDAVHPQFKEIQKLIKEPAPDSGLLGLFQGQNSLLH
The description is as above. To be noted: protein ISOC2; selected HDACi off-targets.

The target in test [5] is T5, non-HDAC targets (e.g. BZW2, ISOC2, aldehyde dehydrogenases) (Homo sapiens, UniProt Q9Y6E2).
T5 construct: endogenous in cells; host or cells: K562 whole cell extract
T5 sequence (Q9Y6E2 1-419): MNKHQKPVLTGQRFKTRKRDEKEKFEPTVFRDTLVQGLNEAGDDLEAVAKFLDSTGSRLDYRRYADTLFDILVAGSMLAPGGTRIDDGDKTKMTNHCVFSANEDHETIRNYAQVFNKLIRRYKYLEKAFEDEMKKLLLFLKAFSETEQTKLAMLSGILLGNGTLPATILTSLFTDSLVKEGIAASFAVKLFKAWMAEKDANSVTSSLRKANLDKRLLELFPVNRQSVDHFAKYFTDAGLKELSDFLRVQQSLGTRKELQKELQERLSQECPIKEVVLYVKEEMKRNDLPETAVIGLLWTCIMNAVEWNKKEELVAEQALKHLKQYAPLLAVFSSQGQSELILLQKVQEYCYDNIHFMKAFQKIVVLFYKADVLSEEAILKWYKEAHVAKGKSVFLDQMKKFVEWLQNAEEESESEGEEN
Described as above. The settings on record: protein BZW2; selected HDACi off-targets.

In a further test the test system is RERE. The test can be described thus: Chemoproteomic binding profiling, K562 cell extract, SAHA/ITF2357 probe matrix (Kd app), ELSA (ELM-SANT) domain protein. Also noted: species or system human. The settings on record: protein RERE; ELSA (ELM-SANT) domain proteins.
The next test deals with T6, HDAC1 (Homo sapiens, UniProt Q13547).
T6 construct: used to probe endogenous HDACs in K562 whole cell extracts; endogenous in cells
Kind of test: Chemoproteomic binding profiling, K562 cell extract, SAHA/ITF2357 probe matrix (Kd app). The settings on record: protein HDAC1; class I HDAC; read-out: Kd^app HDAC1.

Another test concerns the target T7, HDAC10 (Homo sapiens, UniProt Q969S8).
T7 construct: used to probe endogenous HDACs in K562 whole cell extracts; endogenous in cells
T7 sequence (Q969S8 1-669): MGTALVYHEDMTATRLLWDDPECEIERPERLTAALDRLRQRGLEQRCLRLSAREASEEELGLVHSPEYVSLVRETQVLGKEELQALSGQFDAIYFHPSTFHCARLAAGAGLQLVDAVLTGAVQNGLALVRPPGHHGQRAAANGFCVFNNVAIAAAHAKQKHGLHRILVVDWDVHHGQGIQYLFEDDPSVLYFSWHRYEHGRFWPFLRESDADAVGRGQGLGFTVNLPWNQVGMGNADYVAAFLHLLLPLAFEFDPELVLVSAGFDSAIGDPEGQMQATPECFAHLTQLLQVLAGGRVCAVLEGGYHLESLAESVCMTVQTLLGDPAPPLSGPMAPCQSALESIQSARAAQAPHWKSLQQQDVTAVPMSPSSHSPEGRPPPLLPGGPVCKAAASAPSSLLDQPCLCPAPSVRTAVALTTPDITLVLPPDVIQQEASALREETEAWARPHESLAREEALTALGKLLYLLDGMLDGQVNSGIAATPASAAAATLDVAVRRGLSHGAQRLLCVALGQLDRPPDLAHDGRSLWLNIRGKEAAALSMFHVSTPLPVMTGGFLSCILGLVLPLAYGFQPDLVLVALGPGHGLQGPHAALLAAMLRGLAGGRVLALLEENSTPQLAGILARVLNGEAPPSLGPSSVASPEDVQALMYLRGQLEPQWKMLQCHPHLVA
The description is as above. To be noted: for binding profile for HDAC10 (in words): K562 cell extract.

Setting [6] is: protein HDAC10, class II HDAC, read-out: Kd^app HDAC10.

T6 sequence (Q13547 whole entry): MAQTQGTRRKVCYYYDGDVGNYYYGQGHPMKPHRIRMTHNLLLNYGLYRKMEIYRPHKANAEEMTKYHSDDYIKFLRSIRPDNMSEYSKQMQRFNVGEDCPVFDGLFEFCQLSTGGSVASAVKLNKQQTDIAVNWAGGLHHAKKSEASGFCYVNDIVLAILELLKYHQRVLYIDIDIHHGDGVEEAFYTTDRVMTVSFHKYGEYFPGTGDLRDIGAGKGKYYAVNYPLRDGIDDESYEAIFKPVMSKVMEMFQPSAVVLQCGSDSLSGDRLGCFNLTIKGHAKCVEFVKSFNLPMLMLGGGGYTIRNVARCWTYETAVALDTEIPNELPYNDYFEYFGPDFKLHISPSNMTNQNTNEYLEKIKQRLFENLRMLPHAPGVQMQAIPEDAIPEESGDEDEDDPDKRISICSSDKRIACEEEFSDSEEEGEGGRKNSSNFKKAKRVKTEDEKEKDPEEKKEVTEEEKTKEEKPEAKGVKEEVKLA

As to `O=C(CCCCCCC(=O)Nc1ccccc1)NO` [SAHA, suberoylanilide hydroxamic acid], the Kd in test [1] and in test [2] was greater than 10 µM in each case.
On to `Nc1ccccc1NC(=O)c1ccc(CNC(=O)OCc2cccnc2)cc1` [MS-275], for which the Kd (in test [3]; in test [1]; in test [2]; in test [4]; in test [5]; in the test on RERE) was greater than 300 µM in each case.
For `CCCCOc1ccc(CC(=O)NO)cc1` [bufexamac], the Kd on HDAC1 is greater than 59.7 µM; on HDAC10 (setting [6]), 10 µM; in test [3] it was 3 µM; in test [1], 149 µM; in test [2], 304 µM; in test [4], 3 µM. Also, the Kd in test [5] is 3 µM; with RERE, 33 µM. Moreover, the “binding profile for HDAC10 (in words)” value on HDAC10 is “selectivity for HDAC6 and HDAC10”.
For the compound `Nc1ccccc1NC(=O)CCCCCCC(=O)Nc1ccccc1` [BML-210], the Kd on HDAC1 is 36 µM; at HDAC10 (setting [6]) it was greater than 85 µM; in test [3], greater than 85 µM; in test [1], greater than 85 µM; in test [2] it was greater than 85 µM; in test [4] it was greater than 85 µM. In addition, the Kd (in test [5]; with RERE) was greater than 85 µM in each case. Further, the “binding profile for HDAC10 (in words)” value at HDAC10 is listed as “complete loss of potency for class IIb”.
Consider `CCCC(CCC)C(=O)O` [valproate, valproic acid], for which the Kd on HDAC1 was 358 µM; at HDAC10 (setting [6]), greater than 10 µM; in test [3] it was greater than 10 µM; in test [1] it was greater than 10 µM; in test [2], greater than 10 µM; in test [4], greater than 10 µM. Further, the Kd in test [5] was greater than 10 µM; in the test on RERE it was 3120 µM.
`O=C(/C=C/c1cccc(S(=O)(=O)Nc2ccccc2)c1)NO` [belinostat]: the Kd was 4.43 µM at HDAC10; greater than 10 µM in test [3]; 1.98 µM in test [1]; 3.5 µM in test [2]; greater than 10 µM in test [4]; 2.25 µM in test [5].

For the origin of these results see patent US20130071854A1, “METHODS FOR THE IDENTIFICATION AND CHARACTERIZATION OF HDAC INTERACTING COMPOUNDS” (priority 2009, published 2013).
